Reference: US20180219160A1, “BENZOBIS(THIADIAZOLE) DERIVATIVE, INK COMPRISING THE SAME, AND ORGANIC ELECTRONIC DEVICE USING THE SAME” (UBE INDUSTRIES, LTD., priority 2014, published 2018)

Tests used:
[1] = Evaluation of solubility in organic solvents (visual observation of complete dissolution); format: physicochemical
Method: [Evaluation of Solubility] The evaluation of the solubility of the synthesized compound was conducted by the following method.
About 2-3 mg of the synthesized compound was precisely weighed, and each solvent was added to the compound such that a predetermined concentration of the solute (0.3 wt %, 0.2 wt %, 0.1 wt %) was reached. The resultant mixture was stirred for 30 minutes at a predetermined temperature, and then it was evaluated by visual appearance observation whether or not the solute (synthesized compound) was completely dissolved in the solvent, which was the result of the evaluation of the solubility. As the solvent, chloroform (boiling point 61° C.), toluene (boiling point 111° C.), anisole (boiling point 154° C.), mesitylene (boiling point 165° C.), ortho-dichlorobenzene (boiling point 181° C.) and 1-methylnaphthalene (boiling point 241° C.) were used.

[2] = Thermal weight loss analysis (initial decomposition temperature); format: physicochemical
[3] = 1-methylnaphthalene, room temperature (25° C.)
[4] = chloroform, room temperature (25° C.)
[5] = mesitylene, room temperature (25° C.)

| SMILES | solubility (concentration completely dissolved) [1, 3] [wt %] | solubility (concentration completely dissolved) [1, 4] [wt %] | initial decomposition temperature [2] [°C] | other results |
| --- | --- | --- | --- | --- |
| CCCCCCN1C(=O)c2cc(-c3c4c(c(-c5cc6c(s5)C(=O)N(CCCCCC)C6=O)c5nsnc35)N=S=N4)sc2C1=O [Compound (12-6)] | ≥ 0.1 | ≥ 0.2 | 364 | solubility (concentration completely dissolved) ([1]; mesitylene, 80° C.): ≥ 0.3 wt %; solubility (concentration completely dissolved) ([1]; toluene, 80° C.): ≥ 0.3 wt % |
| CCCCCCCCN1C(=O)c2cc(-c3c4c(c(-c5cc6c(s5)C(=O)N(CCCCCCCC)C6=O)c5nsnc35)N=S=N4)sc2C1=O [Compound (12-8)] | ≥ 0.3 | ≥ 0.2 | 367 | solubility (concentration completely dissolved) [1, 5]: ≥ 0.3 wt %; solubility (concentration completely dissolved) ([1]; toluene, room temperature (25° C.)): ≥ 0.3 wt % |
| CCCCCCCCCCCCN1C(=O)c2cc(-c3c4c(c(-c5cc6c(s5)C(=O)N(CCCCCCCCCCCC)C6=O)c5nsnc35)N=S=N4)sc2C1=O [Compound (12-12)] | – | ≥ 0.1 | 360 | solubility (concentration completely dissolved) ([1]; mesitylene, 60° C.): ≥ 0.3 wt %; solubility (concentration completely dissolved) ([1]; toluene, 60° C.): ≥ 0.3 wt % |
| CCCCC(CC)CN1C(=O)c2cc(-c3c4c(c(-c5cc6c(s5)C(=O)N(CC(CC)CCCC)C6=O)c5nsnc35)N=S=N4)sc2C1=O (stereo not drawn) [Compound (12-EH)] | ≥ 0.3 | ≥ 0.2 | 369 | solubility (concentration completely dissolved) ([1]; mesitylene, 80° C.): ≥ 0.3 wt %; solubility (concentration completely dissolved) ([1]; ortho-dichlorobenzene, room temperature (25° C.)): ≥ 0.3 wt/o; solubility (concentration completely dissolved) ([1]; toluene, 60° C.): ≥ 0.3 wt % |
| O=C1c2cc(-c3c4c(c(-c5cc6c(s5)C(=O)N(CC(F)(F)C(F)(F)C(F)(F)F)C6=O)c5nsnc35)N=S=N4)sc2C(=O)N1CC(F)(F)C(F)(F)C(F)(F)F [Compound (12-HepFBu)] | – | ≥ 0.1 | 367 | solubility (concentration completely dissolved) ([1]; anisole, room temperature (25° C.)): ≥ 0.1 wt %; solubility (concentration completely dissolved) [1, 5]: ≥ 0.1 wt % |
| CN1C(=O)c2cc(-c3c4c(c(-c5cc6c(s5)C(=O)N(C)C6=O)c5nsnc35)N=S=N4)sc2C1=O [Compound (12-Me)] | – | – | 367 | – |
| CN1C(=O)c2cc3cc(-c4c5c(c(-c6cc7cc8c(cc7s6)C(=O)N(C)C8=O)c6nsnc46)N=S=N5)sc3cc2C1=O [Compound (22-1)] | – | – | 475 | – |
| CCCCCCN1C(=O)c2cc3cc(-c4c5c(c(-c6cc7cc8c(cc7s6)C(=O)N(CCCCCC)C8=O)c6nsnc46)N=S=N5)sc3cc2C1=O [Compound (22-6)] | – | – | 405 | – |
